Earlier results, collected in patent US12201667B2, “Formulations for treating cramps and spasms” (LYTONE ENTERPRISE, INC., priority 2020, dated 2025).

Details: background statement

C=C[C@H]1C[N@@]2CC[C@H]1C[C@H]2[C@H](O)c1ccnc2ccc(OC)cc12 [quinine, Quinine]
reduction of cramp frequency: about a quarter
